Laboratory results reported in paper PMC6970549, “Orai1 Channel Inhibition Preserves Left Ventricular Systolic Function and Normal Ca^2+ Handling After Pressure Overload” (Circulation, 2020).

Biological target: Orai1 (Homo sapiens, UniProt Q96D31)
Assay: patch-clamp electrophysiology in Orai1-transfected HEK293 cells
Type: cell-based
From the text: patch-clamp electrophysiology in Orai1-transfected HEK293 cells on Orai1 | Electrophysiological recordings in Orai1-transfected HEK293 cells also confirmed that JPIII is a potent Orai1 inhibitor with an IC50 of […]

Orai1, sequence (Q96D31 whole entry): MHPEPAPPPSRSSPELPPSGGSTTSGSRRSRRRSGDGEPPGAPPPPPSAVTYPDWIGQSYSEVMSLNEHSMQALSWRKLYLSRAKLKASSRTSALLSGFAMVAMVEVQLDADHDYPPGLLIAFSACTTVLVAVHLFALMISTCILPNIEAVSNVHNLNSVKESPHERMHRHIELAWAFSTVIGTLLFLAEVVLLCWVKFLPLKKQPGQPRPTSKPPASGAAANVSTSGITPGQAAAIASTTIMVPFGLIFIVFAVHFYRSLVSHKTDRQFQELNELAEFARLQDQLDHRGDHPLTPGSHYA

Compound: COc1ccc(OC)c(-c2ccc(NCc3ccncc3)cc2)c1 [JPIII, 4-(2,5-dimethoxyphenyl)-N-[(pyridin-4-yl)methyl]aniline]
- IC50: 244 ± 39 nM
